Source: patent US11844801B2, “Oral compositions of MK2 pathway inhibitor for treatment of immune conditions” (priority 2020, dated 2023)
In brackets after ≈: the same amount, converted by molar mass. Like-named read-outs stand apart in the source and are kept apart here.

Key:
[1] = cited from earlier work
IL-6 [2] = experiment: IL-1β stimulated IL-6 production in human whole blood; assay type: cell-based
Description: Compounds were serially diluted in 100% DMSO (Sigma-Aldrich, D2650) followed by a 10× dilution into RPMI (Gibco, 11875). After the one-hour incubation with the compounds or vehicle, 2 μL of IL-1β (R&D, 201-LB-010) in RPMI (Gibco, 11875) was added for a final concentration of 0.5 μg/mL to each well except for the no stimulus wells. […]

[3] = 13-week oral administration non-clinical safety study, rat; assay type: in vivo; settings: for Cmax / AUC(0-t): 30 mg/kg/day oral; for AUC(0-t): read-out: AUC0-24
Description: Study Design. […] Rats were administered 0 (vehicle), 3, 10 and 30 mg/kg/day, and Mini-pigs were administered 0 (vehicle) 10, 30 and 60 mg/kg/day

IL-8 = experiment: IL-1β stimulated IL-8 production in human whole blood; assay type: cell-based
Description: Compounds were serially diluted in 100% DMSO (Sigma-Aldrich, D2650) followed by a 10× dilution into RPMI (Gibco, 11875). After the one-hour incubation with the compounds or vehicle, 2 μL of IL-1β (R&D, 201-LB-010) in RPMI (Gibco, 11875) was added for a final concentration of 0.5 μg/mL to each well except for the no stimulus wells. After six hours of incubation with IL-1β, plasma was harvested and assayed for TNF-α, IL-6 and IL-8 using Meso Scale Discovery Technology V-plex human cytokine kits according to the kit protocol.

TNF-α = experiment: TLR2 ligand (Pam3) or LPS induced TNF-α in peripheral blood mononuclear cells; assay type: cell-based; settings: 10-10,000 nM
Description: LPS or Pam3 were then added to the designated wells for a final concentration of 100 ng/mL for both (or medium for unstimulated control). After 30 min MSU was added to the designated wells for final concentration of 100 μg/mL (or medium for no-MSU control). After a 6-hour incubation, plates were centrifuged at 500×g for 5 min, and medium was collected from each well for assay. Released TNF-α was measured using Meso Scale Discovery technology, an ELISA-like format with capture and detection antibodies, but with a final readout using electrochemiluminescence.

IL-6 [4] = experiment: Ex vivo LPS-stimulated IL-6 in blood of dosed healthy subjects, PK/PD inhibitory Emax model; set-up: species or system human
Description: Blood samples of 10 mL were collected for PD analysis. For the SAD cohorts, blood was collected before dosing and 1, 12, and 24 hours after dosing. For the MAD cohorts, on day 1 blood was collected before the morning dose and 4 and 12 hours after the morning dose (prior to the evening dose); on day 7, blood was collected before the morning dose and 4 and 12 hours after the morning dose.
Additional details of the assays for analyzing p-HSP27 and cytokines are included in the Supplementary Information.
Pharmacodynamics. PD data analysis was conducted using Microsoft Excel 2010 (Microsoft, Redmond, WA), Meso Scale Discovery Workbench® analysis software (Rockville, MD), and Phoenix WinNonlin, version 8.2.
Sample Preparation for Cytokine Analysis. For each sample, 180 μL aliquots were transferred into 7 wells of a round bottom 96 well tissue culture polystyrene low evaporation plate. […] No outer wells on the plates were used and all wells surrounding the samples contained 200 μL of phosphate buffered saline.
DMSO was added to all wells in groups ‘A’ and ‘C’ to a final concentration of 0.1% ([…] of a 2% DMSO solution in DMEM containing 10% FBS and 1% penicillin/streptomycin/glutamine). […] Samples were mixed gently for 30 seconds on a plate shaker using pin tools, then placed in an incubator at 37° C./5% CO2 for 1 hour.
Samples in groups ‘A’ and ‘B’ were stimulated with lipopolysaccharide at a final concentration of 100 ng/mL. A stock solution of lipopolysaccharide at 1 mg/mL in DMEM containing 10% FBS and 1% penicillin/streptomycin was diluted to […] in DMEM containing 10% FBS and 1% penicillin/streptomycin, and […] of this working solution was added per well of blood for all samples in groups ‘A’ and ‘B’. […] of DMEM containing 10% FBS only was added per well of blood for all samples in group ‘C’ (unstimulated samples). Samples were mixed gently for 30 seconds on a plate shaker using pin tools, then placed in an incubator at 37° C./5% CO2 for 5 hours.
Following the incubation, the plates were removed from the incubator and sealed with adhesive clear plate seals. The plates were then centrifuged for 10 minutes at 1800×g at room temperature. […] of plasma was removed from each well and transferred to a 96-well polypropylene round bottom master plate, which was then sealed and frozen at −80° C. until all samples from the respective cohort were generated. Once all samples from a given cohort were generated, the samples were analyzed for cytokine (TNF-α, IL-1b, IL-6, and IL-8) production using Meso Scale Discovery Technology.
Analysis of Cytokine Levels Using Meso Scale Discovery Technology. All lipopolysaccharide plasma samples were analyzed for cytokine production with a V-Plex Human Proinflammatory Panel II (4-Plex) Kit from Meso Scale Discovery (Rockville, MD). The master plates containing the plasma samples were thawed on ice, and a daughter plate consisting of a 25-fold dilution of each plasma sample (3 μL of plasma plus 72 μL of Meso Scale Discovery Diluent 2) was generated for each master plate. The diluted plasma samples from the daughter plates were used in the cytokine analysis. The Meso Scale Discovery 4-plex plates were washed 3 times with 150 μL/well of wash buffer (1×KPL phosphate buffered saline with Tween 20 from SeraCare [Milford, MA]). Prepared calibrators and the samples from the daughter plates were added to the washed Meso Scale Discovery 4-plex plates at 50 μL/well. The 4-plex plates were sealed and shaken overnight at 4° C.
After the overnight incubation, the samples were removed by decanting. The 4-plex plates were then washed 3 times with 150 μL/well of wash buffer. […]

clinical = settings: male, human, in vivo
[5] = female, rat, in vivo, study day 88, females
[6] = male, rat, in vivo, study day 88, males

Cc1cnc(-c2ccnc(C(C)(C)O)n2)cc1-n1c(C)cc(OCc2ncc(F)cc2F)c(Cl)c1=O (single isomer, unassigned) [ATI-450, 3-chloro-4-((3,5-difluoropyridin-2-yl)methoxy)-2′-(2-(2-hydroxypropan-2-yl)pyrimidin-4-yl)-5′,6-dimethyl-2H-[1,4′-bipyridin]-2-one]
bone marrow IL-1β in murine NOMID model ([1]; relative to placebo): reduction in bone marrow levels of IL-1β | effect on disease in murine NOMID model ([1]; transgenic animal model): dramatic attenuation of disease | IC50 (IL-6 [2]; Human Whole Blood, IL-1β, 10 ng/mL, 5 hr): 0.0111 ± 0.0038 µM | IC80 (IL-6 [2]; human whole blood): 0.041 ± 0.02 µg/mL (≈ 0.0798 µM) | non adverse finding, myocytes ([3]; 13-week oral): Minimal to moderate degeneration of myocytes at all doses, including control animals | mortality ([3]; 13-week oral, up to 30 mg/kg/day): No study drug-related mortality was observed | recovery of rat non adverse findings ([3]; after 13-week dosing): complete recovery following 28-day non-dosing period | Cmax [3, 5]: 5440 ng/mL | AUC(0-t) [3, 5]: 43500 ng·h/mL | Cmax [3, 6]: 3260 ng/mL | AUC(0-t) [3, 6]: 36400 ng·h/mL | NOAEL at 13 weeks ([3]; rat, in vivo, 13-week oral, read-out: no-observed adverse effect level (NOAEL)): 30 mg/kg/day | non adverse finding, nasal area ([3]; several animals at mid and high dose): minimal ulceration/mixed cell inflammation | IC80 (IL-8): 0.04 ± 0.012 µg/mL (≈ 0.0778 µM) | TLR2 ligand induced TNF-α production (TNF-α): dose dependently inhibits | Cmax (Multiple of IC80) (IL-6 [4]; 50 mg BID, day 7): 0.3x | Ctrough (Multiple of IC80) (IL-6 [4]; 50 mg BID, day 7): 0.1x | inhibition at 50 mg (IL-6 [4]; Homo sapiens, 50 mg BID, part of the dosing interval): > 50% | IC80 (IL-6 [4]; Homo sapiens, calculated from IC50, combined SAD and MAD data, read-out: IC80, plasma concentration at 80% of maximal inhibition): 0.748 µg/mL | IC50 (IL-6 [4]; Homo sapiens, inhibitory Emax model, combined SAD and MAD data, read-out: IC50, plasma concentration at half maximal inhibition): 0.187 µg/mL | IC80, plasma concentration at 80% of maximal inhibition (IL-6 [4]; calculated from IC50, combined SAD and MAD data): 0.7478 µg/mL | Tmax (clinical): 2 h
